# Experimental data taken from patent US6391868B1, “Use of 5-alpha-androst-1-en-3,17-dione to increase the level of the anabolic/androgenic hormone 17-beta-hydroxy-5-alpha-androst-1-en-3-one in humans” (LPT Research, Inc., priority 2000, dated 2002).
# Key:
# [1] = Oral treatment of a person with andropause-type symptoms; assay type: in vivo, human; settings: oral 3×100 mg daily, 4 weeks, one person
# Procedure: A person with complaints of decreased libido, lethargy, depression, and muscular weakness, was treated for 4 weeks with oral androstenedione 3×100 mg daily. […] After a 2 week respite, they then commenced a 4 week regimen of 5alpha-ANDROST-1-EN-3,17-DIONE using the same protocol (3×100 mg daily).
# [2] = 100 mg orally to men; cited from earlier work
# [3] = Steroids (8) 216; cited from earlier work
Compound,"reported improvement of symptoms (decreased libido, lethargy, depression, muscular weakness) [1]",excretion of 17beta-hydroxy-5alpha-androst-1-en-3-one in the urine [2],anabolic properties relative to testosterone [3]
"C[C@]12CCC(=O)C=C1CC[C@@H]1[C@@H]2CC[C@]2(C)C(=O)CC[C@@H]12 [androstenedione, 4-androstenedione]",did not report any noticeable improvement,–,–
"C[C@]12C=CC(=O)C[C@@H]1CC[C@@H]1[C@@H]2CC[C@]2(C)C(=O)CC[C@@H]12 [5alpha-ANDROST-1-EN-3,17-DIONE, 5alpha-androst-1-en-3,17-dione]",clearly evident significant improvements in all their symptoms,considerable excretion,–
C[C@]12C=CC(=O)C[C@@H]1CC[C@@H]1[C@@H]2CC[C@]2(C)[C@@H](O)CC[C@@H]12 [17beta-hydroxy-5alpha-androst-1-en-3-one],–,–,considerably more potent
